Data on 20 compounds can be found in US20240398757A1 (COCRYSTAL PHARMA, INC., priority 2022, published 2024).

The assay addresses T1, SARS2 protease (Severe acute respiratory syndrome coronavirus 2, UniProt P0DTD1).
T1 construct: SARS2 protease was added to a final concentration of 30 nM
Put plainly: SARS-CoV-2 protease inhibition assay (SARS2 FRET protease assay). It is filed as biochemical. Conditions: IC50 (μM), SARS2 protease 30 nM, peptide substrate 1.3 μM, 120 minutes at 37° C., compounds 20 μM to 0.075 nM.

Consider `CCCC[C@H](NC(=O)OC(c1cccc(F)c1)C(F)(F)c1cccc(F)c1)C(=O)N[C@H](C=O)C[C@@H]1CCNC1=O` (some centres unmarked) [Compound A78], for which half-maximal inhibition (IC50) was put at 0.009 µM.

With `CC(C)C[C@H](NC(=O)O[C@H](c1ccccc1)C(F)(F)c1cccc(Cl)c1)C(=O)N[C@H](C=O)C[C@@H]1CCNC1=O` [Compound A79], the 50% inhibitory concentration (IC50) (commonly the concentration at which inhibition is half-maximal) was determined as 0.013 µM.

In turn, `CCCC[C@H](NC(=O)OC(c1cccc(F)c1)C(F)(F)c1cccc(F)c1)C(=O)N[C@@H](C[C@@H]1CCNC1=O)C(=O)C(=O)NC1CC1` (some centres unmarked) [Compound A80] showed an IC50 of 0.14 µM.

With `CCCC[C@H](NC(=O)OC(c1ccccc1)C(F)(F)c1cccc(Cl)c1)C(=O)N[C@H](C=O)CC1CC(C)(C)NC1=O` (some centres unmarked) [Compound A81], it took 0.47 µM to reach half-maximal inhibition (IC50).

`CC(C)C[C@H](NC(=O)OC(c1cccc(Cl)c1)C1(c2cccc(Cl)c2)CCNCC1)C(=O)N[C@@H](C[C@@H]1CCNC1=O)C(=O)C(=O)NC1CC1` (some centres unmarked) [Compound A83] had an IC50 of 0.51 µM.

As to `CC(C)C[C@H](NC(=O)OC(c1ccc(Cl)cc1)C1(c2cccc(Cl)c2)CCN(C(=O)OC(C)(C)C)CC1)C(=O)N[C@H](C=O)C[C@@H]1CCNC1=O` (some centres unmarked) [Compound A85], the IC50 was found to be 0.46 µM.

Consider `CC(C)C[C@H](NC(=O)OC(c1cccc(Cl)c1)C1(c2cccc(Cl)c2)CCN(C(=O)OC(C)(C)C)CC1)C(=O)N[C@H](C=O)C[C@@H]1CCNC1=O` (some centres unmarked) [Compound A86], for which inhibition was half-maximal at 0.37 µM (IC50).

In turn, `CCCC[C@H](NC(=O)OC(c1ccccc1)C(F)(F)c1cccc(F)c1)C(=O)N[C@@H](C[C@@H]1CCNC1=O)C(=O)C(=O)NC1CC1` (some centres unmarked) [Compound A87] gave a 50% inhibitory concentration (IC50) of 0.09 µM.

Consider `CC(C)C[C@H](NC(=O)OC(c1ccc(Cl)cc1)C1(c2cccc(Cl)c2)CCN(C(=O)OC(C)(C)C)CC1)C(=O)N[C@@H](C[C@@H]1CCNC1=O)C(=O)C(=O)NC1CC1` (some centres unmarked) [Compound A88], for which the half-inhibitory concentration (IC50) is 0.63 µM.

Consider `CCC[C@H](NC(=O)OC(c1ccccc1)C(F)(F)c1cccc(F)c1)C(=O)N[C@H](C=O)C[C@@H]1CCNC1=O` (some centres unmarked) [Compound A89], for which the IC50 worked out at 0.02 µM.

`CCCC[C@H](NC(=O)OC(c1ccccc1)C1(c2cccc(Cl)c2)CC1)C(=O)N[C@H](C=O)C[C@@H]1CCNC1=O` (some centres unmarked) [Compound A90] came in with an IC50 of 0.04 µM.

`CCCC[C@H](NC(=O)OC(c1ccc(F)cc1)C1(c2cccc(Cl)c2)CC1)C(=O)N[C@H](C=O)C[C@@H]1CCNC1=O` (some centres unmarked) [Compound A91]: the IC50 is 0.01 µM.

On to `CC(C)C[C@H](NC(=O)OC(c1ccc(Cl)cc1)C1(c2cccc(Cl)c2)CCNCC1)C(=O)N[C@@H](C[C@@H]1CCNC1=O)C(=O)C(=O)NC1CC1` (some centres unmarked) [Compound A92], for which half-maximal inhibition (IC50) was put at 1.12 µM.

The compound `O=C[C@H](C[C@@H]1CCNC1=O)NC(=O)[C@H](CC1CCCC1)NC(=O)OC(c1ccccc1)C(F)(F)c1cccc(Cl)c1` (stereo partly drawn) [Compound A93, 2-(3-chlorophenyl)-2,2-difluoro-1-phenylethyl ((S)-3-cyclopentyl-1-oxo-1-(((S)-1-oxo-3-((S)-2-oxopyrrolidin-3-yl)propan-2-yl)amino)propan-2-yl)carbamate] showed an IC50 of 0.0003 µM.

Consider `O=C(N[C@@H](CC1CC1)C(=O)N[C@@H](C[C@@H]1CCNC1=O)C(=O)C(=O)NC1CC1)OC(c1ccccc1)C(F)(F)c1cccc(Cl)c1` (some centres unmarked) [Compound A94], for which half-maximal inhibition (IC50) required 0.0123 µM.

`O=C[C@H](C[C@@H]1CCNC1=O)NC(=O)[C@H](CC1CC1)NC(=O)OC(c1ccccc1)C(F)(F)c1cccc(Cl)c1` (some centres unmarked) [Compound A95] displayed an IC50 of 0.0009 µM.

Consider `CCCC[C@H](NC(=O)OC(c1cccc(F)c1)C1(c2cccc(Cl)c2)CC1)C(=O)N[C@H](C=O)C[C@@H]1CCNC1=O` (some centres unmarked) [Compound A96], for which the 50% inhibitory concentration (IC50) was determined as 0.007 µM.

For the compound `CCCC[C@H](NC(=O)OC(c1cccc(F)c1)C1(c2cccc(F)c2)CC1)C(=O)N[C@H](C=O)C[C@@H]1CCNC1=O` (some centres unmarked) [Compound A97], the 50% inhibitory concentration (IC50) is 0.0021 µM.

As to `CCC[C@H](NC(=O)OC(c1ccccc1)C(F)(F)c1cccc(Cl)c1)C(=O)N[C@H](C=O)C[C@@H]1CCNC1=O` (some centres unmarked) [Compound A98], the 50% inhibitory concentration (IC50) was determined as 0.0019 µM.

`CCCC[C@H](NC(=O)OC(c1cccc(F)c1)C(F)(F)c1cccc(Cl)c1)C(=O)N[C@H](C=O)C[C@@H]1CCNC1=O` (some centres unmarked) [Compound A99]: the IC50 is 0.0006 µM.
